Test results taken from ChEMBL document CHEMBL5149974, “Antimicrobial drugs bearing guanidine moieties: A review” (Eur J Med Chem, 2021).
In brackets after ≈: the same amount, converted by molar mass.

Key:
Type in all cases: functional
[1] = system: Mycobacterium tuberculosis; test: Potentiation of isoniazid-induced antimycobacterial activity against Mycobacterium tuberculosis H37Rv assessed as reduction in isoniazid MIC at 250 uM incubated for 48 hrs by alamar blue staining based analysis
[2] = system: Mycobacterium tuberculosis; test: Potentiation of isoniazid-induced antimycobacterial activity against Mycobacterium tuberculosis H37Rv assessed as reduction in isoniazid MIC at 125 uM incubated for 48 hrs by alamar blue staining based analysis
Staphylococcus aureus [3] = test: Potentiation of Norfloxacin-induced antibacterial activity against Staphylococcus aureus 1199B overexpressing NorA efflux pump assessed as fold reduction in norfloxacin MIC by microdilution method
Staphylococcus aureus [4] = test: Potentiation of ethidium bromide-induced antibacterial activity against Staphylococcus aureus 1199B overexpressing NorA efflux pump assessed as fold reduction in ethidium bromide MIC by microdilution method
Staphylococcus aureus [5] = test: Potentiation of ethidium bromide-induced antibacterial activity against Staphylococcus aureus 1199B overexpressing NorA efflux pump assessed as ethidium bromide MIC by microdilution method
Staphylococcus aureus [6] = test: Potentiation of Norfloxacin-induced antibacterial activity against Staphylococcus aureus 1199B overexpressing NorA efflux pump assessed as norfloxacin MIC by microdilution method
[7] = system: Mycolicibacterium smegmatis; test: Potentiation of cefotaxime-induced antimycobacterial activity against Mycobacterium smegmatis assessed as cefotaxime MIC at 9 ug/ml (reference value: 128 ug/ml); conditions: dose 9 µg/ml
Bacillus subtilis [8] = test: Antibacterial activity against Bacillus subtilis ATCC 6633 assessed as growth inhibition incubated for 18 hrs by broth microdilution method
Staphylococcus aureus [9] = test: Antibacterial activity against Staphylococcus aureus ATCC 25923 assessed as growth inhibition incubated for 18 hrs by broth microdilution method
Klebsiella pneumoniae = test: Antibacterial activity against Klebsiella pneumoniae ATCC 13833 assessed as growth inhibition incubated for 18 hrs by broth microdilution method
Enterococcus faecalis [10] = test: Antibacterial activity against Enterococcus faecalis ATCC 29212 assessed as growth inhibition incubated for 18 hrs by broth microdilution method
Pseudomonas aeruginosa [11] = test: Antibacterial activity against Pseudomonas aeruginosa ATCC 27853 assessed as growth inhibition incubated for 18 hrs by broth microdilution method
Acinetobacter baumannii = test: Antibacterial activity against Acinetobacter baumannii ATCC 17978 assessed as growth inhibition incubated for 18 hrs by broth microdilution method
Escherichia coli [12] = test: Antibacterial activity against Escherichia coli CCUG assessed as growth inhibition incubated for 18 hrs by broth microdilution method
[13] = system: Staphylococcus epidermidis; test: Antibacterial activity against Staphylococcus epidermidis ATCC 14990 assessed as growth inhibition incubated for 18 hrs by broth microdilution method
Staphylococcus aureus [14] = test: Antibacterial activity against Staphylococcus aureus CMCC (B) 26003 assessed as inhibition of bacterial growth incubated for 24 hrs by microplate reader analysis
Enterococcus faecalis [15] = test: Antibacterial activity against Enterococcus faecalis assessed as inhibition of bacterial growth measured after 24 hrs
Staphylococcus aureus [16] = test: Antibacterial activity against Staphylococcus aureus CMCC 25923 assessed as inhibition of bacterial growth incubated for 24 hrs by microplate reader analysis
Pseudomonas aeruginosa [17] = test: Antibacterial activity against Pseudomonas aeruginosa CMCC 27853 assessed as inhibition of bacterial growth incubated for 24 hrs by microplate reader analysis
Escherichia coli [18] = test: Antibacterial activity against Escherichia coli CMCC 44568 assessed as inhibition of bacterial growth incubated for 24 hrs by microplate reader analysis
Streptococcus mutans = test: Antibacterial activity against Streptococcus mutans BNCC 336931 assessed as inhibition of bacterial growth incubated for 24 hrs by microplate reader analysis
Staphylococcus aureus [19] = test: Antibacterial activity against multidrug-resistant Staphylococcus aureus ATCC 33591 assessed as inhibition of bacterial growth incubated for 24 hrs by microplate reader analysis
Pseudomonas aeruginosa [20] = test: Antibacterial activity against multidrug-resistant Pseudomonas aeruginosa ATCC BAA-2111 assessed as inhibition of bacterial growth incubated for 24 hrs by microplate reader analysis
Staphylococcus aureus [21] = test: Antibacterial activity against Staphylococcus aureus assessed as inhibition of bacterial growth measured after 24 hrs
Enterococcus faecalis [22] = test: Antibacterial activity against Enterococcus faecalis CMCC 29212 assessed as inhibition of bacterial growth incubated for 24 hrs by microplate reader analysis
Bacillus subtilis [23] = test: Antibacterial activity against Bacillus subtilis assessed as inhibition of bacterial growth measured after 24 hrs
Bacillus subtilis [24] = test: Antibacterial activity against Bacillus subtilis CMCC 63501 assessed as inhibition of bacterial growth incubated for 24 hrs by microplate reader analysis
Pseudomonas aeruginosa [25] = test: Antibacterial activity against Pseudomonas aeruginosa CMCC 10104 assessed as inhibition of bacterial growth incubated for 24 hrs by microplate reader analysis
Escherichia coli [26] = test: Antibacterial activity against Escherichia coli CMCC 25922 assessed as inhibition of bacterial growth incubated for 24 hrs by microplate reader analysis
Staphylococcus aureus [27] = test: Antibacterial activity against multidrug-resistant Staphylococcus aureus ATCC 43300 assessed as inhibition of bacterial growth incubated for 24 hrs by microplate reader analysis
[28] = system: Mycobacterium tuberculosis; test: Anti-mycobacterial activity against Mycobacterium tuberculosis H37Rv ATCC […] assessed as bacterial growth inhibition by alamar blue assay
Staphylococcus aureus [29] = test: Antibacterial activity against methicillin-resistant Staphylococcus aureus ATCC 33591 assessed as bacterial growth inhibition by CLSI based broth microdilution method
Staphylococcus aureus [30] = test: Antibacterial activity against Staphylococcus aureus assessed as bacterial growth inhibition incubated for 24 hrs
[31] = system: Mycobacterium tuberculosis; test: Anti-mycobacterial activity against Mycobacterium tuberculosis H37Rv ATCC 27294 assessed as bacterial growth inhibition incubated for 7 days by resazurin dye based assay; conditions: H37Rv ATCC 27294, 168 h, time 7 day
[32] = system: Plasmodium vinckei petteri; test: Antimalarial activity against Plasmodium vinckei petteri 279BY infected in Swiss mouse assessed as reduction in parasitemia administered orally once daily for 4 consecutive days and measured on day 5; conditions: 120 h, route po, time 5 day
[33] = system: Plasmodium vinckei petteri; test: Antimalarial activity against Plasmodium vinckei petteri 279BY infected in Swiss mouse assessed as reduction in parasitemia administered intraperitoneally once daily for 4 consecutive days and measured on day 5; conditions: 120 h, route ip, time 5 day
Escherichia coli [34] = test: Antibacterial activity against Escherichia coli assessed as bacterial growth inhibition incubated for 24 hrs
[35] = system: Mycobacterium tuberculosis; test: Antibacterial activity against Mycobacterium tuberculosis H37Rv assessed as bacterial growth inhibition by vertical diffusion method

CCCCCCc1ccc(-c2c[nH]c(N)n2)cc1
MIC [1]: 0.039 µg/mL | MIC [2]: 0.039 µg/mL

Cl.N#Cc1ccc(/C=N/NC(=N)N)cc1
fold change (FC) (Staphylococcus aureus [3]): <=16 | fold change (FC) (Staphylococcus aureus [4]): <=32

Cl.N=C(N)N/N=C/c1ccnc2ccccc12
fold change (FC) (Staphylococcus aureus [3]): <=16 | fold change (FC) (Staphylococcus aureus [4]): <=32 | MIC (Staphylococcus aureus [5]): 1 µg/mL | MIC (Staphylococcus aureus [6]): 8 µg/mL

CCCCCc1ccc(C(=O)Nc2ccc3c(c2)nc(N)n3CCCc2ccccc2)cc1
MIC [7]: 1 µg/mL

Cl.NC(N)=N/N=C/c1ccc(Cl)c(Cl)c1
fold change (FC) (Staphylococcus aureus [3]): <=16 | fold change (FC) (Staphylococcus aureus [4]): <=32

N=C(N)NCCCCCCCCN(CCCCCCCCNC(=N)NCC1CC1)C(=O)N(CCCCCCCCNC(=N)N)CCCCCCCCNC(=N)NCC1CC1
MIC (Bacillus subtilis [8]): 0.5 µg/mL (≈ 0.591 µM) | MIC (Staphylococcus aureus [9]): 0.5 µg/mL (≈ 0.591 µM) | MIC (Klebsiella pneumoniae): 0.5 µg/mL (≈ 0.591 µM) | MIC (Enterococcus faecalis [10]): 0.5 µg/mL (≈ 0.591 µM) | MIC (Pseudomonas aeruginosa [11]): 0.5 µg/mL (≈ 0.591 µM) | MIC (Acinetobacter baumannii): 0.5 µg/mL (≈ 0.591 µM) | MIC (Escherichia coli [12]): 0.5 µg/mL (≈ 0.591 µM) | MIC [13]: 0.5 µg/mL (≈ 0.591 µM)

N=C(N)N/N=C/c1ccc(C#Cc2ccc(Cl)cc2)cc1
MIC (Staphylococcus aureus [14]): 0.25 µg/mL (≈ 0.842 µM) | MIC (Enterococcus faecalis [15]): 0.25 µg/mL (≈ 0.842 µM) | MIC (Staphylococcus aureus [16]): 0.25 µg/mL (≈ 0.842 µM) | MIC (Pseudomonas aeruginosa [17]): 0.25 µg/mL (≈ 0.842 µM) | MIC (Escherichia coli [18]): 0.25 µg/mL (≈ 0.842 µM) | MIC (Streptococcus mutans): 0.25 µg/mL (≈ 0.842 µM) | MIC (Staphylococcus aureus [19]): 0.25 µg/mL (≈ 0.842 µM) | MIC (Pseudomonas aeruginosa [20]): 0.25 µg/mL (≈ 0.842 µM) | MIC (Staphylococcus aureus [21]): 0.25 µg/mL (≈ 0.842 µM) | MIC (Enterococcus faecalis [22]): 0.25 µg/mL (≈ 0.842 µM) | MIC (Bacillus subtilis [23]): 0.25 µg/mL (≈ 0.842 µM) | MIC (Bacillus subtilis [24]): 0.25 µg/mL (≈ 0.842 µM) | MIC (Pseudomonas aeruginosa [25]): 0.25 µg/mL (≈ 0.842 µM) | MIC (Escherichia coli [26]): 0.25 µg/mL (≈ 0.842 µM) | MIC (Staphylococcus aureus [27]): 0.25 µg/mL (≈ 0.842 µM)

Cc1ccc(-n2nc(C)c3c(-c4c(C)nn(-c5ccccc5)c4Cl)nc(N)nc32)cc1
MIC [28]: 1.2 µg/mL (≈ 2.79 µM)

N=C(N)NC[C@H]1OC(O[C@H]2C(NC(=O)[C@H](O)CCN)C[C@H](N)[C@@H](O[C@H]3O[C@H](CN)[C@@H](O)[C@H](O)[C@H]3O)[C@@H]2O)[C@H](O)[C@@H](N)[C@@H]1O (stereo not given in full)
MIC (Staphylococcus aureus [29]): 3.12 µg/mL (≈ 4.99 µM)

Cl.N=C(N)NCCCNC(=O)C(=O)c1cc(Cl)ccc1NC(=O)c1ccc2ccccc2c1
MIC (Staphylococcus aureus [30]): 8 µg/mL

N=C(N)NCCNC(=O)c1cc2c([nH]c3ccccc32)c(-c2ccc(O)cc2)n1
MIC [31]: 27.8 µg/mL (≈ 71.6 µM)

Cn1oc(=O)n(CCCCCCCCCCCCn2c(=O)on(C)c2=O)c1=N
ED50 [32]: 82 mg/kg | ED50 [33]: 4 mg/kg

Cl.N=C(N)NCCCNC(=O)C(=O)c1cc(Br)ccc1NC(=O)c1ccc2ccccc2c1
MIC (Staphylococcus aureus [30]): 6 µg/mL

COC(=O)C(CCCCNC(=N)N)NC(=O)C(=O)c1ccccc1NC(=O)c1ccc2ccccc2c1.Cl (stereo not given)
MIC (Escherichia coli [34]): 17 µg/mL

Cc1nn(-c2ccccc2)c(Cl)c1-c1nc(N)nc2c1c(C)nn2-c1ccc(S(=O)(=O)O)cc1Cl
MIC [28]: 1.2 µg/mL (≈ 2.26 µM)

Cc1nn(-c2ccccc2)c(Cl)c1-c1nc(N)nc2c1c(C)nn2-c1cccc(Cl)c1
MIC [28]: 1.2 µg/mL (≈ 2.66 µM)

N=C(N)Nc1nnc2nccn2n1
MIC [35]: 1.5 µg/mL (≈ 8.42 µM)
